From patent US20260176320A1, “MODULATORS OF G-PROTEIN COUPLED RECEPTORS” (priority 2018, published 2026)
Like-named read-outs stand apart in the source and are kept apart here.

How the values were obtained:
Type in all cases: cell-based
GIP-R = target: T1, GIP-R (Homo sapiens, UniProt P48546); experiment: HitHunter cAMP assay (GIP-R); conditions: cAMP; for Emax: read-out: (Emax) GIP-R
T1 sequence (P48546 22-466): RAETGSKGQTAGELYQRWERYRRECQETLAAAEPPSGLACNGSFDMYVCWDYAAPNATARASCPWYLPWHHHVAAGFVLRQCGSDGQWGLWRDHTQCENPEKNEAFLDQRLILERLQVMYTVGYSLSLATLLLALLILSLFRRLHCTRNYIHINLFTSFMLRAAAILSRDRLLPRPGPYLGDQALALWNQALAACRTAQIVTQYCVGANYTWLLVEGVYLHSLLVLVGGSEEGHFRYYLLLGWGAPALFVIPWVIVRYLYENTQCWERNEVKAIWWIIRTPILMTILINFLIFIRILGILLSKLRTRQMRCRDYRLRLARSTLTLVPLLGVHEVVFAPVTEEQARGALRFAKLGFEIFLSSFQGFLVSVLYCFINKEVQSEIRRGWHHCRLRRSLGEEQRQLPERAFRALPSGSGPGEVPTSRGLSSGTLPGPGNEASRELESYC
Procedure, shortened: (§1)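 cAMP, luminescence read: agonist 22-pt 2× dilution in DMSO, duplicate, 30 min RT on 10,000 cells/well in 1×HBSS/10 mM HEPES/625 μM IBMX/0.2% BSA; anti-cAMP reagent 1 h RT dark, then O/N RT dark before read.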

GLP-1R [1] = target: T2, GLP-1R (Homo sapiens, UniProt P43220); experiment: PathHunter β-arrestin assay
Procedure, shortened: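 Luminescence read-out of β-arrestin recruitment (enzyme-fragment complementation detection, 3 h at room temperature in the dark) after 90 min agonist stimulation at 37 °C. Agonists tested as 22-point 2× serial dilutions in duplicate, in medium containing 0.2% BSA.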

GLP-1R [2] = target: T2, GLP-1R; experiment: HitHunter cAMP assay (GLP-1R); conditions: cAMP; for Emax: read-out: (Emax) GLP-1R
Procedure, shortened: as §1

[3] = Table 3, read-out: EC50 GIP-R/nM
[4] = PathHunter β-arrestin assay, read-out: β-arrestin activity EC50
[5] = Table 3, read-out: EC50 GLP-1R/nM
[6] = Table 3A, read-out: EC50 GLP-1R/nM
[7] = Table 3A, read-out: EC50 GIP-R/nM

T2 sequence (P43220 24-463): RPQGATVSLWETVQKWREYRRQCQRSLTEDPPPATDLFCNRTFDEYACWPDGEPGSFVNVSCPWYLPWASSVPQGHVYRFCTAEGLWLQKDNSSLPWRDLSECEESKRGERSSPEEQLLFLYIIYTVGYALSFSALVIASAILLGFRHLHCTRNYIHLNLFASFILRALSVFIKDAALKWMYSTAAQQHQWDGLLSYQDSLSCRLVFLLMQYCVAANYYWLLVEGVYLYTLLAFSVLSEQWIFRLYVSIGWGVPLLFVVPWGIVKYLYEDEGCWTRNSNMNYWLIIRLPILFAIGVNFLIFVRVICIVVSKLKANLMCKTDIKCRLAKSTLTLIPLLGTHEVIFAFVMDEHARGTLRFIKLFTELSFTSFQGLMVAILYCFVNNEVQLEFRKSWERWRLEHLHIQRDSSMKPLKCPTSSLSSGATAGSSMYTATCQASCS

Row | Compound | Emax (GIP-R; Table 3) | EC50 (GIP-R; [3]) | Emax (GIP-R; Table 3A) | EC50 (GLP-1R [1]; [4]) | Emax (GLP-1R [2]; Table 3) | EC50 (GLP-1R [2]; [5]) | Emax (GLP-1R [2]; Table 3A) | EC50 (GLP-1R [2]; [6]) | EC50 (GIP-R; EC50 GIP-R/nM, Table 3) | EC50 (GIP-R; EC50 GIP-R/nM, Table 3A) | EC50 (GLP-1R [1]) | EC50 (GLP-1R [2]; EC50 GLP-1R/nM, Table 3) | EC50 (GLP-1R [2]; EC50 GLP-1R/nM, Table 3A) | EC50 (GIP-R; [7])
1 | CCCCCCCCCCCCCCCC(=O)N[C@@H](CCC(=O)NCCCC[C@H](NC(=O)[C@H](CO)NC(=O)[C@@H]1CCCN1C(=O)[C@@H]1CCCN1C(=O)[C@@H]1CCCN1C(=O)[C@H](C)NC(=O)CNC(=O)[C@H](CO)NC(=O)[C@H](CO)NC(=O)[C@@H]1CCCN1C(=O)CNC(=O)CNC(=O)[C@H](C)NC(=O)[C@H](CC(C)C)NC(=O)[C@H](CC(C)C)NC(=O)[C@H](Cc1c[nH]c2ccccc12)NC(=O)[C@H](CC(N)=O)NC(=O)[C@@H](NC(=O)[C@H](Cc1ccccc1)NC(=O)[C@H](CCC(=O)O)NC(=O)C(C)(C)NC(=O)[C@H](C)NC(=O)[C@H](C)NC(=O)[C@H](CCC(N)=O)NC(=O)[C@H](CCCCN)NC(=O)[C@H](CC(=O)O)NC(=O)[C@H](CC(C)C)NC(=O)[C@H](Cc1ccc(O)cc1)NC(=O)[C@@H](NC(=O)[C@H](CO)NC(=O)[C@H](Cc1ccc(O)cc1)NC(=O)[C@H](CC(=O)O)NC(=O)[C@H](CO)NC(=O)[C@@H](NC(=O)[C@H](Cc1ccccc1)NC(=O)[C@@H](NC(=O)CNC(=O)[C@H](CCC(=O)O)NC(=O)CSCC(=O)NCCN1CCNC(=O)C1)[C@@H](C)O)[C@@H](C)O)[C@@H](C)CC)C(C)C)C(N)=O)C(=O)O [Compound 37] | 10 to 21% | 1 to 10 nM | 10 to 21% | > 1000 nM | 110% | < 1 nM | 110% | < 1 nM |  |  |  |  |  | 
2 | CCCCCCCCCCCCCCCC(=O)N[C@@H](CCC(=O)NCCCC[C@H](NC(=O)[C@H](CO)NC(=O)[C@@H]1CCCN1C(=O)[C@@H]1CCCN1C(=O)[C@@H]1CCCN1C(=O)[C@H](C)NC(=O)CNC(=O)[C@H](CO)NC(=O)[C@H](CO)NC(=O)[C@@H]1CCCN1C(=O)CNC(=O)CNC(=O)[C@H](C)NC(=O)[C@H](CC(C)C)NC(=O)[C@H](CC(C)C)NC(=O)[C@H](Cc1c[nH]c2ccccc12)NC(=O)[C@H](CC(N)=O)NC(=O)[C@@H](NC(=O)[C@H](Cc1ccccc1)NC(=O)[C@H](CCC(=O)O)NC(=O)C(C)(C)NC(=O)[C@H](C)NC(=O)[C@H](C)NC(=O)[C@H](CCC(N)=O)NC(=O)[C@H](CCCCN)NC(=O)[C@H](CC(=O)O)NC(=O)[C@H](CC(C)C)NC(=O)[C@H](Cc1ccc(O)cc1)NC(=O)[C@@H](NC(=O)[C@H](CO)NC(=O)[C@H](Cc1ccc(O)cc1)NC(=O)[C@H](CC(=O)O)NC(=O)[C@H](CO)NC(=O)[C@@H](NC(=O)[C@H](Cc1ccccc1)NC(=O)[C@@H](NC(=O)CNC(=O)[C@H](CCC(=O)O)NC(=O)CSCC(=O)NCCN1C(=O)CC(C)(C)C1=O)[C@@H](C)O)[C@@H](C)O)[C@@H](C)CC)C(C)C)C(N)=O)C(=O)O [Compound 104] | 43 to 47% |  | 43 to 47% |  | 104 to 106% |  | 104 to 106% |  | 1 to 10 nM | 1 to 10 nM | > 1000 nM | 1 to 10 nM | 1 to 10 nM | 
3 | CCCCCCCCCCCCCCCC(=O)N[C@@H](CCC(=O)NCCCC[C@H](NC(=O)[C@H](CO)NC(=O)[C@@H]1CCCN1C(=O)[C@@H]1CCCN1C(=O)[C@@H]1CCCN1C(=O)[C@H](C)NC(=O)CNC(=O)[C@H](CO)NC(=O)[C@H](CO)NC(=O)[C@@H]1CCCN1C(=O)CNC(=O)CNC(=O)[C@H](C)NC(=O)[C@H](CC(C)C)NC(=O)[C@H](CC(C)C)NC(=O)[C@H](Cc1c[nH]c2ccccc12)NC(=O)[C@H](CC(N)=O)NC(=O)[C@@H](NC(=O)[C@H](Cc1ccccc1)NC(=O)[C@H](CCC(=O)O)NC(=O)C(C)(C)NC(=O)[C@H](C)NC(=O)[C@H](C)NC(=O)[C@H](CCC(N)=O)NC(=O)[C@H](CCCCN)NC(=O)[C@H](CC(=O)O)NC(=O)[C@H](CC(C)C)NC(=O)[C@H](Cc1ccc(O)cc1)NC(=O)[C@@H](NC(=O)[C@H](CO)NC(=O)[C@H](Cc1ccc(O)cc1)NC(=O)[C@H](CC(=O)O)NC(=O)[C@H](CO)NC(=O)[C@@H](NC(=O)[C@H](Cc1ccccc1)NC(=O)[C@@H](NC(=O)CNC(=O)[C@H](CCC(=O)O)NC(=O)CSCC(=O)NCCn1ccc(C)cc1=O)[C@@H](C)O)[C@@H](C)O)[C@@H](C)CC)C(C)C)C(N)=O)C(=O)O [Compound 285] |  |  | 97% |  |  |  | 99% |  |  | 0.1 to 1 nM | > 1000 nM |  | < 0.1 nM | 
4 | CCCCCCCCCCCCCCCC(=O)N[C@@H](CCC(=O)NCCCC[C@H](NC(=O)[C@H](CO)NC(=O)[C@@H]1CCCN1C(=O)[C@@H]1CCCN1C(=O)[C@@H]1CCCN1C(=O)[C@H](C)NC(=O)CNC(=O)[C@H](CO)NC(=O)[C@H](CO)NC(=O)[C@@H]1CCCN1C(=O)CNC(=O)CNC(=O)[C@H](C)NC(=O)[C@H](CC(C)C)NC(=O)[C@H](CC(C)C)NC(=O)[C@H](Cc1c[nH]c2ccccc12)NC(=O)[C@H](CC(N)=O)NC(=O)[C@@H](NC(=O)[C@H](Cc1ccccc1)NC(=O)[C@H](CCC(=O)O)NC(=O)C(C)(C)NC(=O)[C@H](C)NC(=O)[C@H](C)NC(=O)[C@H](CCC(N)=O)NC(=O)[C@H](CCCCN)NC(=O)[C@H](CC(=O)O)NC(=O)[C@H](CC(C)C)NC(=O)[C@H](Cc1ccc(O)cc1)NC(=O)[C@@H](NC(=O)[C@H](CO)NC(=O)[C@H](Cc1ccc(O)cc1)NC(=O)[C@H](CC(=O)O)NC(=O)[C@H](CO)NC(=O)[C@@H](NC(=O)[C@H](Cc1ccccc1)NC(=O)[C@@H](NC(=O)CNC(=O)[C@H](CCC(=O)O)NC(=O)CSCC(=O)NCCN1CC(=O)NCC1=O)[C@@H](C)O)[C@@H](C)O)[C@@H](C)CC)C(C)C)C(N)=O)C(=O)O [Compound 25] | 43% | 1 to 10 nM | 43% | > 1000 nM | 86% | 1 to 10 nM | 86% | 1 to 10 nM |  |  |  |  |  | 1 to 10 nM
5 | CCCCCCCCCCCCCCCC(=O)N[C@@H](CCC(=O)NCCCC[C@H](NC(=O)[C@H](CO)NC(=O)[C@@H]1CCCN1C(=O)[C@@H]1CCCN1C(=O)[C@@H]1CCCN1C(=O)[C@H](C)NC(=O)CNC(=O)[C@H](CO)NC(=O)[C@H](CO)NC(=O)[C@@H]1CCCN1C(=O)CNC(=O)CNC(=O)[C@H](C)NC(=O)[C@H](CC(C)C)NC(=O)[C@H](CC(C)C)NC(=O)[C@H](Cc1c[nH]c2ccccc12)NC(=O)[C@H](CC(N)=O)NC(=O)[C@@H](NC(=O)[C@H](Cc1ccccc1)NC(=O)[C@H](CCC(=O)O)NC(=O)C(C)(C)NC(=O)[C@H](C)NC(=O)[C@H](C)NC(=O)[C@H](CCC(N)=O)NC(=O)[C@H](CCCCN)NC(=O)[C@H](CC(=O)O)NC(=O)[C@H](CC(C)C)NC(=O)[C@H](Cc1ccc(O)cc1)NC(=O)[C@@H](NC(=O)[C@H](CO)NC(=O)[C@H](Cc1ccc(O)cc1)NC(=O)[C@H](CC(=O)O)NC(=O)[C@H](CO)NC(=O)[C@@H](NC(=O)[C@H](Cc1ccccc1)NC(=O)[C@@H](NC(=O)CNC(=O)[C@H](CCC(=O)O)NC(=O)[C@@H](C)NC(=O)CCN1CCCCC1=O)[C@@H](C)O)[C@@H](C)O)[C@@H](C)CC)C(C)C)C(N)=O)C(=O)O [Compound 214] |  |  | 45% | 10 to 1000 nM |  |  | 95% | < 0.1 nM |  |  |  |  |  | 1 to 10 nM
6 | CC[C@H](C)[C@H](NC(=O)[C@H](CO)NC(=O)[C@H](Cc1ccc(O)cc1)NC(=O)[C@H](CC(=O)O)NC(=O)[C@H](CO)NC(=O)[C@@H](NC(=O)[C@H](Cc1ccccc1)NC(=O)[C@@H](NC(=O)CNC(=O)[C@H](CCC(=O)O)NC(=O)CSCC(=O)NCCN1C(=O)CCCC1=O)[C@@H](C)O)[C@@H](C)O)C(=O)N[C@@H](Cc1ccc(O)cc1)C(=O)N[C@@H](CC(C)C)C(=O)N[C@@H](CC(=O)O)C(=O)N[C@@H](CCCCN)C(=O)N[C@@H](CCC(N)=O)C(=O)N[C@@H](C)C(=O)N[C@@H](C)C(=O)NC(C)(C)C(=O)N[C@@H](CCC(=O)O)C(=O)N[C@@H](Cc1ccccc1)C(=O)N[C@H](C(=O)N[C@@H](CC(N)=O)C(=O)N[C@@H](Cc1c[nH]c2ccccc12)C(=O)N[C@@H](CC(C)C)C(=O)N[C@@H](CC(C)C)C(=O)N[C@@H](C)C(=O)NCC(=O)NCC(=O)N1CCC[C@H]1C(=O)N[C@@H](CO)C(=O)N[C@@H](CO)C(=O)NCC(=O)N[C@@H](C)C(=O)N1CCC[C@H]1C(=O)N1CCC[C@H]1C(=O)N1CCC[C@H]1C(=O)N[C@@H](CO)C(=O)N[C@@H](CCCCN)C(N)=O)C(C)C [Compound 138] | 81% |  | 81% |  | 87% |  | 87% |  | 1 to 10 nM | 1 to 10 nM | > 1000 nM | 1 to 10 nM | 1 to 10 nM | 
